Measured values from US20230091225A1, “Bifunctional chimeric heterocyclic compounds for targeted degradation of androgen receptors and use thereof” (HINOVA PHARMACEUTICALS INC., priority 2019, published 2023).
Read-outs that look alike come from different tables or passages of the source.

Target: T1, androgen receptor (AR) (Homo sapiens, UniProt P10275)
T1 sequence (P10275 1-920): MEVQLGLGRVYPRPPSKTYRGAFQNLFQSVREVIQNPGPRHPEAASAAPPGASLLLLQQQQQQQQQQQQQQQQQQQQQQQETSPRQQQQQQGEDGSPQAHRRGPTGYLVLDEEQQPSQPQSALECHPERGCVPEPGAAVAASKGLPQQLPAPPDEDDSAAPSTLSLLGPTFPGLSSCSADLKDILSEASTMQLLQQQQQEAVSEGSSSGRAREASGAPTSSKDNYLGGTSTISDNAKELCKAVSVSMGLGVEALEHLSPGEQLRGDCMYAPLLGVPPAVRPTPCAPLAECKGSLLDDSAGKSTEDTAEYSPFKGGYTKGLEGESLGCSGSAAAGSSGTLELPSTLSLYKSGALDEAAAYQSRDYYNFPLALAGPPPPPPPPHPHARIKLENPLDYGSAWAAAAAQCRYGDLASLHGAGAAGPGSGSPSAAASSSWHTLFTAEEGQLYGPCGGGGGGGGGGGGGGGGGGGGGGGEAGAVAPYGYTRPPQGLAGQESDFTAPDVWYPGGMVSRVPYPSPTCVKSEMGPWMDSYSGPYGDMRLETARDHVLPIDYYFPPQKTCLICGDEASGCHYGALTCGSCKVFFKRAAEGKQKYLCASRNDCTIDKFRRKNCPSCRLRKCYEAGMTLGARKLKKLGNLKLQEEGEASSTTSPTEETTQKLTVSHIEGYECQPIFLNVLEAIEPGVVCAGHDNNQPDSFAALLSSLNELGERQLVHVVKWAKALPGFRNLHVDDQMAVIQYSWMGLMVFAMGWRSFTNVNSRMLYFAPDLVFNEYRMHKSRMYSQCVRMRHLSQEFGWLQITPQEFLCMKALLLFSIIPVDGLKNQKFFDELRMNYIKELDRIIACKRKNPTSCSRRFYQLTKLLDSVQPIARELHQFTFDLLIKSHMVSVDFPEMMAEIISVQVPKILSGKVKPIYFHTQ
Assay: Degradation of androgen receptor (AR) protein in VCaP cells by ELISA
Format: cell-based
Details: for Dmax: VCaP; for inhibition at 0.1 µM: percentage of degraded AR at 100 nM, read-out: % degradation

[1] = AR degradation, VCaP cells, 16 h, ELISA, Table 3-1, read-out: DC50
[2] = AR degradation, VCaP cells, 16 h, ELISA, Table 3-1, read-out: Dmax (%)
[3] = AR degradation, VCaP cells, 16 h, ELISA, Table 3-1

Compound	DC50 [1] [nM]	Dmax [2] [%]	other results
N-((1r,4r)-4-(3-chloro-4-cyanophenoxy)cyclohexyl)-6-(4-((6-(2-(2,6-dioxopiperidin-3-yl)-6-fluoro-1,3-dioxoisoindolin-5-yl)-2,6-diazaspiro[3.3]heptan-2-yl)methyl)piperidin-1-yl)pyrazine-2-amide [Compound 123]			Dmax (%): ++++ (key: A: >80%; B: 79%-50%; C: 49%-25%; D: <25%); DC50 (read-out: DC50): < 10 nM
CC1(C)[C@H](Oc2ccc(C#N)c(Cl)c2)C(C)(C)[C@H]1N1Cc2nc(N3CCC(CN4CCN(c5cc6c(cc5F)C(=O)N(C5CCC(=O)NC5=O)C6)CC4)CC3)ccc2C1=O (stereo partly drawn) [Compound 206]			inhibition at 0.1 µM (VCaP cells, 16 h, ELISA): 25 to 49%
CC(=O)O[C@@H]1C[C@H](C(=O)NC2(c3ccc(-c4scnc4C)cc3)CC2)N(C(=O)[C@@H](NC(=O)COCCCCC#Cc2ccc(C(=O)N[C@H]3C(C)(C)[C@H](Oc4ccc(C#N)c(Br)c4)C3(C)C)cc2)C(C)(C)C)C1 [Compound 8, (3R,5R)-1-((S)-2-(2-((6-(4-(((1R,3R)-3-(3-bromo-4-cyanophenoxy)-2,2,4,4-tetramethylcyclobutyl)carbamoyl)phenyl)hex-5-yn-1-yl)oxy)acetylamino)-3,3-dimethylbutyryl)-5-((1-(4-(4-methylthiazol-5-yl)phenyl)cyclopropyl)carbamoyl) pyrrolidin-3-yl acetate]			inhibition at 0.1 µM (VCaP cells, 16 h, ELISA): 25 to 49%
CC1(C)[C@H](Oc2ccc(C#N)c(Cl)c2)C(C)(C)[C@H]1N1Cc2nc(C#C[C@H]3CC[C@H](N4CCN(c5cc6c(cc5F)C(=O)N(C5CCC(=O)NC5=O)C6=O)CC4)CC3)cnc2C1=O (stereo partly drawn) [Compound 380]	10 to 100	60 to 80	
N#Cc1ccc(O[C@H]2CC[C@H](NC(=O)c3cn([C@H]4CC[C@H](CN5CCC6(CC5)CN(c5cc7c(cc5F)C(=O)N(C5CCC(=O)NC5=O)C7=O)C6)CC4)nn3)CC2)cc1Cl (stereo partly drawn) [Compound 115]	< 10	> 80	
CC1(C)[C@H](Oc2ccc(C#N)c(Cl)c2)C(C)(C)[C@H]1N1Cc2nc(C#CC3CCC(N4CC5CC4CN5c4cc5c(cc4F)C(=O)N(C4CCC(=O)NC4=O)C5=O)CC3)cnc2C1=O (stereo partly drawn) [Compound 387]			Dmax (%) (AR degradation, VCaP cells, 16 h, ELISA, Table 3-2): + (<40%); DC50 (AR degradation, VCaP cells, 16 h, ELISA, Table 3-2, read-out: DC50): > 300 nM
N#Cc1ccc(O[C@H]2CC[C@H](NC(=O)c3ccc(N4CCC(CN5CCC6(CC5)CN(c5cc7c(cc5F)C(=O)N(C5CCC(=O)NC5=O)C7=O)C6)CC4)nn3)CC2)cc1C(F)(F)F (stereo partly drawn) [Compound 152]			DC50: 10 to 100 nM; Dmax: > 80%
N#Cc1ccc(O[C@H]2CC[C@H](NC(=O)c3ccc(N4CCC5(CC4)CN(CC4CCN(c6ccc7c(c6)C(=O)N(C6CCC(=O)NC6=O)C7=O)CC4)C5)nn3)CC2)cc1Cl (stereo partly drawn) [Compound 190, N-((1r,4r)-4-(3-chloro-4-cyanophenoxy)cyclohexyl)-6-(2-((1-(2-(2,6-dioxopiperidin-3-yl)-1,3-dioxoisoindolin-5-yl)piperidine-4-yl)methyl)-2,7-diazaspiro[3.5]nonan-7-yl)pyridazine-3-formamide]	< 10	> 80	
N#Cc1ccc(OC2CCC(NC(=O)c3cnc(N4CC5(CCN(CC6CCN(c7cc8c(cc7F)C(=O)N(C7CCC(=O)NC7=O)C8=O)CC6)CC5)C4)cn3)CC2)cc1Cl (stereo not drawn) [Compound 235, N-((1r,4r)-4-(3-chloro-4-cyanophenoxy)cyclohexyl)-5-(7-((1-(2-(2,6-dioxopiperidin-3-yl)-6-fluoro-1,3-dioxoisoindolin-5-yl)piperidine-4-yl)methyl)-2,7-diazaspiro[3.5]nonan-2-yl)pyrazine-2-carboxamide]	< 10	> 80	
N#Cc1ccc(O[C@H]2CC[C@H](NC(=O)c3cnc(N4CCC5(CC4)CN(CC4CCN(c6cc7c(cc6F)C(=O)N(C6CCC(=O)NC6=O)C7=O)CC4)C5)cn3)CC2)cc1Cl (stereo partly drawn) [Compound 76]	< 10	> 80	
CC1(C)[C@H](Oc2ccc(C#N)c(Cl)c2)C(C)(C)[C@H]1N1Cc2nc(C#CC3CCC(N4CC5(CCN(c6cc7c(cc6F)C(=O)N(C6CCC(=O)NC6=O)C7=O)CC5)C4)CC3)ccc2C1=O (stereo partly drawn) [Compound 378, 2-Chloro-4-((1 r,3r)-3-(2-((4-(7-(2-(2,6-dioxopiperidin-3-yl)-6-fluoro-1,3-dioxoisoindolin-5-yl)-2,7-diazaspiro[3.5]nonan-2-yl)cyclohexyl)ethynyl)-5-oxo-5,7-dihydro-pyrrolo[3,4-b]pyridin-6-yl)-2,2,4,4-tetramethylcyclobutoxy) benzonitrile]	> 300		Dmax (%) [3]: + (<40%)
CC1(C)C(Oc2ccc(C#N)c(Cl)c2)C(C)(C)C1N1Cc2nc(N3CCC(CN4CCN(c5cc6c(cc5F)C(=O)N([C@@H]5CCC(=O)NC5=O)C6)CC4)CC3)ccc2C1=O (stereo partly drawn) [Compound 212]			% degradation: C (key: A: >80%; B: 79%-50%; C: 49%-25%; D: <25%)
CC(=O)O[C@@H]1CC(C(=O)N[C@@H](C)c2ccc(-c3scnc3C)cc2)N(C(=O)[C@@H](NC(=O)COCCN2CCN(c3ccc4c(c3)CN([C@H]3C(C)(C)[C@H](Oc5ccc(C#N)c(Cl)c5)C3(C)C)C4=O)CC2)C(C)(C)C)C1 (stereo partly drawn) [Compound 2, (3R,5S)-1-((S)-2-(2-(2-(4-(2-((1R,3R)-3-(3-chloro-4-cyanophenoxy)-2,2,4,4-tetramethylcyclobutyl)-1-oxoisoindolin-5-yl)piperazin-1-yl)ethoxy)acetylamino)-3,3-dimethylbutyryl)-5-(((S)-1-(4-(4-methylthiazol-5-yl)phenyl)ethyl)carbamoyl) pyrrolidin-3-yl acetate]			inhibition at 0.1 µM (VCaP cells, 16 h, ELISA): < 25%
CC1(C)[C@H](Oc2ccc(C#N)c(Cl)c2)C(C)(C)[C@H]1N1Cc2nc(C#CC3CCC(N4CCC5(CCN(c6cc7c(cc6F)C(=O)N(C6CCC(=O)NC6=O)C7=O)C5)C4)CC3)ccc2C1=O (stereo partly drawn) [Compound 366, 2-Chloro-4-((1r,3r)-3-(2-((4-(7-(2-(2,6-dioxopiperidin-3-yl)-6-fluoro-1,3-dioxoisoindolin-5-yl)-2,7-diazaspiro[4.4]nonan-2-yl)cyclohexyl)ethynyl)-5-oxo-5,7-dihydro-6H-pyrrolo[3,4-b]pyridin-6-yl)-2,2,4,4-tetramethylcyclobutoxy) benzonitrile]	< 10		Dmax (%) [3]: ++++ (>80%)
[2H]C([2H])([2H])Oc1cc(O[C@H]2CC[C@H](NC(=O)c3ccc(N4CCC(CN5CCC6(CC5)CN(c5ccc7c(c5)C(=O)N(C5CCC(=O)NC5=O)C7=O)C6)CC4)nn3)CC2)ccc1C#N (stereo partly drawn) [Compound 153]			DC50: < 10 nM; Dmax: > 80%
CC1(C)[C@H](Oc2ccc(C#N)c(Cl)c2)C(C)(C)[C@H]1N1Cc2nc(C#CC3CCC(N4CCC5(CCN(c6ccc7c(c6)C(=O)N(C6CCC(=O)NC6=O)C7=O)C5)C4)CC3)ccc2C1=O (stereo partly drawn) [Compound 364, 2-Chloro-4-((1r,3r)-3-(2-((4-(7-(2-(2,6-dioxopiperidin-3-yl)-1,3-dioxoisoindolin-5-yl)-2,7-Diazaspiro[4.4]nonan-2-yl)cyclohexyl)ethynyl)-5-oxo-5,7-dihydro-6H-pyrrolo[3,4-b]pyridin-6-yl)-2,2,4,4-tetramethylcyclobutoxy) benzonitrile]	< 10	> 80	

Now from value to compound, other results behind:

DC50 [1] [nM]	Dmax [2] [%]	Compound	other results
< 10	> 80	CC1(C)[C@H](Oc2ccc(C#N)c(Cl)c2)C(C)(C)[C@H]1N1Cc2nc(C#C[C@H]3C[C@H](N4CCN(c5ccc6c(c5)C(=O)N(C5CCC(=O)NC5=O)C6=O)CC4)C3)ccc2C1=O (stereo partly drawn) [Compound 355]	
< 10	> 80	COc1cc(O[C@H]2CC[C@H](NC(=O)c3ccc(N4CCC(CN5CCC6(CC5)CN(c5ccc7c(c5)C(=O)N(C5CCC(=O)NC5=O)C7=O)C6)CC4)nn3)CC2)ccc1C#N (stereo partly drawn) [Compound 276, N-((1r,4r)-4-(4-cyano-3-methoxyphenoxy)cyclohexyl)-6-(4-((2-(2-(2,6-dioxopiperidin-3-yl)-1,3-dioxoisoindolin-5-yl)-2,7-diazaspiro[3.5]nonan-7-yl)methyl)piperidin-1-yl)pyridazine-3-carboxamide]	
100 to 300	> 80	N#Cc1ccc(O[C@H]2CC[C@H](NC(=O)c3cnn([C@H]4CC[C@H](CN5CCC6(CC5)CN(c5cc7c(cc5F)C(=O)N(C5CCC(=O)NC5=O)C7=O)C6)CC4)n3)CC2)cc1Cl (stereo partly drawn) [Compound 117]	
< 10	> 80	N#Cc1ccc(O[C@H]2CC[C@H](NC(=O)c3cnc(N4CC5CN(CC6CCN(c7cc8c(cc7F)C(=O)N(C7CCC(=O)NC7=O)C8=O)CC6)CC5C4)nc3)CC2)cc1Cl (stereo partly drawn) [Compound 272]	
